# Data as given in article PMC7031696 (Cell chemical biology, 2019).
# Where two headings read alike, the source gives them in different places.
# What was measured:
# [1] = test system: asynchronous 3D7-A10 parasite cultures; assay: Standard 72-h exposure asexual blood stage susceptibility assay (IC50^72h); assay type: cell-based, Plasmodium falciparum; conditions: Plasmodium falciparum, 3D7, 72 h, read-out: Overall (72hr assay) Mean IC50 (IC50^72h)
# [2] = test system: 3D7-MR4 trophozoite parasite-infected RBCs; assay: Metabolomic profiling (hydrophilic metabolite changes, UHPLC-MS); assay type: cell-based, Plasmodium falciparum
# [3] = test system: Plasmodium falciparum 3D7-A10 parasites; assay: Stage specificity assay (8-h exposure of synchronized stages, IC50^8h); assay type: cell-based; conditions: for IC50: Plasmodium falciparum
# [4] = test system: 3D7-MR4 trophozoite parasite-infected RBCs; conditions: 10 × IC50^72h; ref Allman et al., 2016; cited from earlier work
smiles,measurement,setting,value
CCN(CC)CCn1c(=N)n(CC(O)c2ccc(Cl)c(Cl)c2)c2ccccc21.Cl (stereo not shown) [MMV000248],IC50,[1],103 nM
same,Log2(fold changes) 3-phosphoglycerate,"[2]; metabolite 3-phosphoglycerate, log2 fold change",0.5325
same,Log2(fold changes) 4-Pyridoxic acid,"[2]; metabolite 4-Pyridoxic acid, log2 fold change",-0.4298
same,Log2(fold changes) 4-aminobutyrate,"[2]; metabolite 4-aminobutyrate, log2 fold change",0.1717
same,Log2(fold changes) 4-phosphopantetheine,"[2]; metabolite 4-phosphopantetheine, log2 fold change",0.0000
same,Log2(fold changes) 4-phosphopantothenate,"[2]; metabolite 4-phosphopantothenate, log2 fold change",-0.4691
same,Log2(fold changes) 5-aminopentanoic acid,"[2]; metabolite 5-aminopentanoic acid, log2 fold change",0.0000
same,Log2(fold changes) 5-methyl-THF,"[2]; metabolite 5-methyl-THF, log2 fold change",0.0000
same,Log2(fold changes) 5-phosphoribosyl-1-pyrophosphate,"[2]; metabolite 5-phosphoribosyl-1-pyrophosphate, log2 fold change",-1.6071
same,Log2(fold changes) 6-phospho-D-gluconate,"[2]; metabolite 6-phospho-D-gluconate, log2 fold change",-0.0745
same,Log2(fold change) HVDD,[2]; metabolite HVDD,0.0000
same,Log2(fold change) Hydroxyisocaproic acid,[2]; metabolite Hydroxyisocaproic acid,0.0000
same,Log2(fold change) IDP,[2]; metabolite IDP,0.0000
same,Log2(fold change) IMP,[2]; metabolite IMP,-0.5306
same,Log2(fold change) Inositol,[2]; metabolite Inositol,0.0000
same,Log2(fold change) Isopentyl-PP,[2]; metabolite Isopentyl-PP,0.0000
same,Log2(fold change) L-arginino-succinate,[2]; metabolite L-arginino-succinate,0.0000
same,Log2(fold change) LD,[2]; metabolite LD,-0.2580
same,Log2(fold change) Myristoyl/tetradecanoyl-CoA,[2]; metabolite Myristoyl/tetradecanoyl-CoA,0.0000
same,Log2(fold change) N-Acetyl-L-alanine,[2]; metabolite N-Acetyl-L-alanine,-0.7106
same,Log2(fold change) N-acetyl-L-ornithine,[2]; metabolite N-acetyl-L-ornithine,-2.2540
same,Log2(fold change) N-acetyl-glucosamine-1/6-phosphate,[2]; metabolite N-acetyl-glucosamine-1/6-phosphate,0.4803
same,Log2(fold change) N-acetyl-glutamate,[2]; metabolite N-acetyl-glutamate,0.5064
same,Log2(fold change) N-acetyl-glutamine,[2]; metabolite N-acetyl-glutamine,-0.2284
same,Log2(fold change) N-carbamoyl-L-aspartate,[2]; metabolite N-carbamoyl-L-aspartate,-0.8588
same,Log2(fold change) NAD+,[2]; metabolite NAD+,-0.1903
same,Log2(fold change) NADH,[2]; metabolite NADH,0.1160
same,Log2(fold change) NADP+,[2]; metabolite NADP+,-0.0428
same,Log2(fold change) NADPH,[2]; metabolite NADPH,0.7586
same,Log2(fold change) O-acetyl-L-serine,[2]; metabolite O-acetyl-L-serine,0.0000
same,Log2(fold change) Octoluse 8/1P,[2]; metabolite Octoluse 8/1P,0.0988
same,Log2(fold change) Octoluse Bisphosphate,[2]; metabolite Octoluse Bisphosphate,-0.4045
same,Log2(fold change) PD,[2]; metabolite PD,-2.8921
same,Log2(fold change) PE,[2]; metabolite PE,-2.0895
same,Log2(fold change) PEE,[2]; metabolite PEE,-1.2134
same,Log2(fold change) PEEK,[2]; metabolite PEEK,-1.2498
same,Log2(fold change) PVNF,[2]; metabolite PVNF,-4.7386
same,Log2(fold change) Pyroglutamic acid,[2]; metabolite Pyroglutamic acid,-0.2793
same,Log2(fold change) Pyrophosphate,[2]; metabolite Pyrophosphate,-1.6691
same,Log2(fold change) Ribose-5-phosphate,[2]; metabolite Ribose-5-phosphate,0.0000
same,Log2(fold change) S-adenosyl-L-homocysteine,[2]; metabolite S-adenosyl-L-homocysteine,-0.0077
same,Log2(fold change) S-adenosyl-L-methioninamine,[2]; metabolite S-adenosyl-L-methioninamine,0.0000
same,Log2(fold change) S-adenosyl-L-methionine,[2]; metabolite S-adenosyl-L-methionine,0.0000
same,Log2(fold change) S-methyl-5'-thioadenosine,[2]; metabolite S-methyl-5'-thioadenosine,0.7911
same,Log2(fold change) SD,[2]; metabolite SD,-1.1732
same,Log2(fold change) SDL,[2]; metabolite SDL,0.0000
same,Log2(fold change) SID,[2]; metabolite SID,0.0000
same,Log2(fold change) Sedoheptulose bisphosphate,[2]; metabolite Sedoheptulose bisphosphate,-0.2688
same,Log2(fold change) Thiamine pyrophosphate,[2]; metabolite Thiamine pyrophosphate,0.0000
same,Log2(fold changes) UDP-D-glucose,"[2]; metabolite UDP-D-glucose, log2 fold change",-0.0583
same,Log2(fold changes) UDP-D-glucuronate,"[2]; metabolite UDP-D-glucuronate, log2 fold change",-0.2918
same,Log2(fold changes) UDP-N-acetyl-glucosamine,"[2]; metabolite UDP-N-acetyl-glucosamine, log2 fold change",-0.1616
same,Log2(fold changes) UDP,"[2]; metabolite UDP, log2 fold change",-0.0490
same,Log2(fold changes) UMP,"[2]; metabolite UMP, log2 fold change",-0.4851
same,Log2(fold changes) UTP,"[2]; metabolite UTP, log2 fold change",-1.1444
same,Log2(fold change) hydroxyphenylpyruvate,[2]; metabolite hydroxyphenylpyruvate,0.0000
same,Log2(fold change) hydroxyproline/Aminolevulinate,[2]; metabolite hydroxyproline/Aminolevulinate,0.0000
same,Log2(fold change) hypoxanthine,[2]; metabolite hypoxanthine,-0.4020
same,Log2(fold change) indole,[2]; metabolite indole,-0.6106
same,Log2(fold change) inosine,[2]; metabolite inosine,-0.0831
same,Log2(fold change) isoleucine,[2]; metabolite isoleucine,0.0000
same,Log2(fold change) lactate,[2]; metabolite lactate,-0.0810
same,Log2(fold change) leucine,[2]; metabolite leucine,0.0000
same,Log2(fold change) lysine,[2]; metabolite lysine,0.0000
same,Log2(fold change) malate,[2]; metabolite malate,-0.9119
same,Log2(fold change) maleic acid,[2]; metabolite maleic acid,0.0000
same,Log2(fold change) methionine,[2]; metabolite methionine,0.0000
same,Log2(fold change) myo-inositol,[2]; metabolite myo-inositol,0.1446
same,Log2(fold change) nicotinamide mononucleotide,[2]; metabolite nicotinamide mononucleotide,0.0000
same,Log2(fold change) nicotinate,[2]; metabolite nicotinate,0.0498
same,Log2(fold change) ornithine,[2]; metabolite ornithine,0.1803
same,Log2(fold change) orotate,[2]; metabolite orotate,-0.8832
same,Log2(fold change) orotidine-5'-phosphate,[2]; metabolite orotidine-5'-phosphate,0.0000
same,Log2(fold change) oxaloacetate,[2]; metabolite oxaloacetate,0.0000
same,Log2(fold change) p-aminobenzoate,[2]; metabolite p-aminobenzoate,0.0000
same,Log2(fold change) p-hydroxybenzoate,[2]; metabolite p-hydroxybenzoate,0.2564
same,Log2(fold change) pantothenate,[2]; metabolite pantothenate,0.0000
same,Log2(fold change) phenylalanine,[2]; metabolite phenylalanine,0.0000
same,Log2(fold change) phenylpyruvate,[2]; metabolite phenylpyruvate,-0.8371
same,Log2(fold change) phosphoenolpyruvate,[2]; metabolite phosphoenolpyruvate,0.4091
same,Log2(fold change) prephenate,[2]; metabolite prephenate,0.0000
same,Log2(fold change) proline,[2]; metabolite proline,0.0000
same,Log2(fold change) pyridoxine,[2]; metabolite pyridoxine,0.0000
same,Log2(fold change) pyruvate,[2]; metabolite pyruvate,-0.4292
same,Log2(fold change) riboflavin,[2]; metabolite riboflavin,0.0000
same,Log2(fold change) ribose,[2]; metabolite ribose,0.0000
same,Log2(fold change) ribose-phosphate,[2]; metabolite ribose-phosphate,-0.0154
same,Log2(fold change) ribulose-5-phosphate,[2]; metabolite ribulose-5-phosphate,0.0000
same,Log2(fold change) serine,[2]; metabolite serine,0.0000
same,Log2(fold change) sn-glycerol-3-phosphate,[2]; metabolite sn-glycerol-3-phosphate,0.2907
same,Log2(fold change) succinate/Methylmalonic acid,[2]; metabolite succinate/Methylmalonic acid,-0.5437
same,Log2(fold change) succinyl-CoA/methylmalonyl-CoA,[2]; metabolite succinyl-CoA/methylmalonyl-CoA,0.0000
same,Log2(fold change) taurine,[2]; metabolite taurine,0.0000
same,Log2(fold change) thiamine,[2]; metabolite thiamine,0.0000
same,Log2(fold change) threonine/homoserine,[2]; metabolite threonine/homoserine,0.0000
same,Log2(fold change) thymidine,[2]; metabolite thymidine,-0.8046
same,Log2(fold changes) thymine,"[2]; metabolite thymine, log2 fold change",-0.3850
same,Log2(fold changes) trehalose-6-Phosphate,"[2]; metabolite trehalose-6-Phosphate, log2 fold change",0.0000
same,Log2(fold changes) tryptophan,"[2]; metabolite tryptophan, log2 fold change",0.0000
same,Log2(fold changes) tyrosine,"[2]; metabolite tyrosine, log2 fold change",0.0000
same,Log2(fold changes) uridine,"[2]; metabolite uridine, log2 fold change",-0.9561
same,Ratio lowest IC50 8hr/IC50 72hr,[3]; 3D7-A10,3.7
same,IC50,"[3]; 3D7, read-out: Early trophozoites Mean IC50 (IC50^8h), 8-h exposure 16–24 hr, 3D7-A10, survival at 60 h",411 nM
same,IC50,"[3]; 3D7, read-out: Late rings Mean IC50 (IC50^8h), 8-h exposure 8–16 hr, 3D7-A10, survival at 60 h",6740 nM
same,IC50,"[3]; 3D7, read-out: Late trophozoites Mean IC50 (IC50^8h), 8-h exposure 24–32 hr, 3D7-A10, survival at 60 h",376 nM
same,IC50,"[3]; 3D7, read-out: Schizonts Mean IC50 (IC50^8h), 8-h exposure 32–40 hr, 3D7-A10, survival at 60 h",754 nM
same,Stage of peak activity (Figure 6),[3]; period when the parasite was most susceptible (lowest IC50^8h),trophozoites
same,Peak Activity (Table S1),[3]; stage(s) with the lowest IC50^8h,Trophs
same,peptide levels (hemoglobin catabolism signature),[4],decreased peptide levels
